Numbers after ± are expanded uncertainties.
Settings: for surface tension liquid-gas: Ring tensiometer; for mass density / viscosity: 101.33 kPa, Liquid; for viscosity: Concentric cylinders viscometry

**Q.** What does the source list for `CN(CCO)CCO` [N-methyldiethanolamine]?
**A.** surface tension liquid-gas (303.15 K): 37.33 ± 0.7 mN/m; mass density (303.15 K): 1033.8 ± 1.5 kg/m3; viscosity (303.15 K): 56.3 ± 1.3 mPa·s; mass density (313.15 K): 1026.7 ± 1.5 kg/m3; viscosity (313.15 K): 34.45 ± 0.85 mPa·s; mass density (323.15 K): 1018.9 ± 1.4 kg/m3; viscosity (323.15 K): 22.93 ± 0.55 mPa·s; surface tension liquid-gas (333.15 K): 35.47 ± 0.67 mN/m; viscosity (333.15 K): 14.99 ± 0.37 mPa·s

— the NIST ThermoML archive (doi:10.1021/je400562z)
